Test results from the supplement of paper PMC9663587.

Legend:
[1] = compound: CCCCOc1c(C(=O)c2c(F)cc(C)cc2F)c[nH]c2nncc1-2
Luminespib/NVP-AUY922 = compound: CCNC(=O)c1noc(-c2cc(C(C)C)c(O)cc2O)c1-c1ccc(CN2CCOCC2)cc1 [Luminespib/NVP-AUY922]
THZ-P1-2 = compound: CN(C)C/C=C/C(=O)NC1=CC=C(C=C1)C(=O)NC2=CC=CC(=C2)NC3=NC=NC(=C3)C4=CNC5=CC=CC=C54 [THZ-P1-2]
BSJ-01-175 = compound: CN(C)C/C=C/C(=O)Nc1ccc(O[C@@H]2CCC[C@@H](Nc3ncc(Cl)c(-c4c[nH]c5ccccc45)n3)C2)cc1 [BSJ-01-175]
Saracatinib/AZD0530 = compound: CN1CCN(CCOc2cc(OC3CCOCC3)c3c(Nc4c(Cl)ccc5c4OCO5)ncnc3c2)CC1 [Saracatinib/AZD0530]
Ceritinib/LDK378 = compound: Cc1cc(Nc2ncc(Cl)c(Nc3ccccc3S(=O)(=O)C(C)C)n2)c(OC(C)C)cc1C1CCNCC1 [Ceritinib/LDK378]
YKL-5-124 = compound: C=CC(=O)Nc1ccc(C(=O)Nc2[nH]nc3c2CN(C(=O)N[C@H](CN(C)C)c2ccccc2)C3(C)C)cc1 [YKL-5-124]; test: increase in dead-cell fraction, 72 h; higher = more death;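 further: breast cancer cell lines in 384-well plates, stained with Hoechst plus LIVE/DEAD far red dye and imaged, cells above an LDR intensity threshold counted dead, Hoechst-negative corpses included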
BSJ-03-123 = compound: CC(=O)c1c(C)c2cnc(Nc3ccc(N4CCN(CCOCCOCCOCCNC(=O)COc5cccc6c5C(=O)N(C5CCC(=O)NC5=O)C6=O)CC4)cn3)nc2n(C2CCCC2)c1=O [BSJ-03-123]; test: as above
[2] = compound: CC(=O)c1c(C)c2cnc(Nc3ccc(N4CCNCC4)cn3)nc2n(C2CCCC2)c1=O; test: as above
[3] = compound: CCN1CCN(Cc2ccc(Nc3ncc(F)c(-c4cc(F)c5nc(C)n(C(C)C)c5c4)n3)nc2)CC1; test: as above
Neratinib/HKI272 = compound: CCOc1cc2ncc(C#N)c(Nc3ccc(OCc4ccccn4)c(Cl)c3)c2cc1NC(=O)/C=C/CN(C)C [Neratinib/HKI272]; test: as above
[4] = compound: CCc1cnn2c(NCc3ccc[n+]([O-])c3)cc(N3CCCC[C@H]3CCO)nc12; test: as above
LEE011/Ribociclib = compound: CN(C)C(=O)c1cc2cnc(Nc3ccc(N4CCNCC4)cn3)nc2n1C1CCCC1 [LEE011/Ribociclib]; test: as above
THZ531 = compound: CN(C)C/C=C/C(=O)Nc1ccc(C(=O)N2CCC[C@@H](Nc3ncc(Cl)c(-c4c[nH]c5ccccc45)n3)C2)cc1 [THZ531]; test: as above
THZ1 = compound: CN(C)C/C=C/C(=O)Nc1ccc(C(=O)Nc2cccc(Nc3ncc(Cl)c(-c4c[nH]c5ccccc45)n3)c2)cc1 [THZ1]; test: as above
Flavopiridol = compound: CN1CC[C@H](c2c(O)cc(O)c3c(=O)cc(-c4ccccc4Cl)oc23)[C@H](O)C1 [Flavopiridol]; test: as above
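Wherever GR50, 72 h is given: breast cancer and non-malignant breast epithelial cell lines, Deep Dye Drop or Dye Drop imaging, nine half-log doses, GR normalized to time-zero plates and DMSO-only controls.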

For MCF12A, the “GR50, 72 h” value [1] was 7.57 µM, the “GR50, 72 h” value (Luminespib/NVP-AUY922) was 0.0103 µM and the “GR50, 72 h” value (THZ-P1-2) was 8.04 µM. For the same cell line, the “GR50, 72 h” value (BSJ-01-175) was 4.32 µM, the “GR50, 72 h” value (Saracatinib/AZD0530) was 9.02 µM and the “GR50, 72 h” value (Ceritinib/LDK378) was 7.62 µM. The “increase in dead-cell fraction” value (YKL-5-124; 0.001 µM) was 0.0376, the “increase in dead-cell fraction” value (YKL-5-124; 0.003162 µM) was 0.0894 and the “increase in dead-cell fraction” value (YKL-5-124; 0.01 µM) was 0.136. The “increase in dead-cell fraction” value (YKL-5-124; 0.03162 µM) was 0.155, the “increase in dead-cell fraction” value (YKL-5-124; 0.1 µM) was 0.184 and the “increase in dead-cell fraction” value (YKL-5-124; 0.3162 µM) was 0.177. For the same cell line, the “increase in dead-cell fraction” value (YKL-5-124; 1 µM) was 0.165, the “increase in dead-cell fraction” value (YKL-5-124; 3.162 µM) was 0.164 and the “increase in dead-cell fraction” value (YKL-5-124; 10 µM) was 0.252. The “increase in dead-cell fraction” value (BSJ-03-123; 0.001 µM) was -0.0046, the “increase in dead-cell fraction” value (BSJ-03-123; 0.003162 µM) was 0.0003 and the “increase in dead-cell fraction” value (BSJ-03-123; 0.01 µM) was 0.0014. For the same cell line, the “increase in dead-cell fraction” value (BSJ-03-123; 0.03162 µM) was -0.0002, the “increase in dead-cell fraction” value (BSJ-03-123; 0.1 µM) was 0.0054 and the “increase in dead-cell fraction” value (BSJ-03-123; 0.3162 µM) was 0.0008. For the same cell line, the “increase in dead-cell fraction” value (BSJ-03-123; 1 µM) was 0.0162, the “increase in dead-cell fraction” value (BSJ-03-123; 3.162 µM) was 0.0226 and the “increase in dead-cell fraction” value (BSJ-03-123; 10 µM) was 0.151. The “increase in dead-cell fraction” value ([2]; 0.0003162 µM) was -0.0052, the “increase in dead-cell fraction” value ([2]; 0.001 µM) was -0.0036 and the “increase in dead-cell fraction” value ([2]; 0.003162 µM) was -0.0043. For the same cell line, the “increase in dead-cell fraction” value ([2]; 0.01 µM) was -0.0067, the “increase in dead-cell fraction” value ([2]; 0.03162 µM) was -0.005 and the “increase in dead-cell fraction” value ([2]; 0.1 µM) was -0.003. The “increase in dead-cell fraction” value ([2]; 0.3162 µM) was 0.0031, the “increase in dead-cell fraction” value ([2]; 1 µM) was 0.006 and the “increase in dead-cell fraction” value ([2]; 3.162 µM) was 0.0205. The “increase in dead-cell fraction” value ([3]; 0.001 µM) was -0.003, the “increase in dead-cell fraction” value ([3]; 0.003162 µM) was 0.0003 and the “increase in dead-cell fraction” value ([3]; 0.01 µM) was -0.0021. The “increase in dead-cell fraction” value ([3]; 0.03162 µM) was 0.0015, the “increase in dead-cell fraction” value ([3]; 0.1 µM) was 0.006 and the “increase in dead-cell fraction” value ([3]; 0.3162 µM) was 0.0113. The “increase in dead-cell fraction” value ([3]; 1 µM) was 0.0148, the “increase in dead-cell fraction” value ([3]; 3.162 µM) was 0.0231 and the “increase in dead-cell fraction” value ([3]; 10 µM) was 0.0492. The “increase in dead-cell fraction” value (Neratinib/HKI272; 0.0003162 µM) was -0.002, the “increase in dead-cell fraction” value (Neratinib/HKI272; 0.001 µM) was 0.0045 and the “increase in dead-cell fraction” value (Neratinib/HKI272; 0.003162 µM) was 0.0065. The “increase in dead-cell fraction” value (Neratinib/HKI272; 0.01 µM) was -0.0012, the “increase in dead-cell fraction” value (Neratinib/HKI272; 0.03162 µM) was -0.0009 and the “increase in dead-cell fraction” value (Neratinib/HKI272; 0.1 µM) was 0.0012. The “increase in dead-cell fraction” value (Neratinib/HKI272; 0.3162 µM) was 0.029, the “increase in dead-cell fraction” value (Neratinib/HKI272; 1 µM) was 0.0776 and the “increase in dead-cell fraction” value (Neratinib/HKI272; 3.162 µM) was 0.146. The “increase in dead-cell fraction” value ([4]; 0.0001 µM) was -0.0058, the “increase in dead-cell fraction” value ([4]; 0.0003162 µM) was 0.0036 and the “increase in dead-cell fraction” value ([4]; 0.001 µM) was 0.0056. The “increase in dead-cell fraction” value ([4]; 0.003162 µM) was -0.0029, the “increase in dead-cell fraction” value ([4]; 0.01 µM) was 0.0006 and the “increase in dead-cell fraction” value ([4]; 0.03162 µM) was 0.0291. For the same cell line, the “increase in dead-cell fraction” value ([4]; 0.1 µM) was 0.541, the “increase in dead-cell fraction” value ([4]; 1 µM) was 0.517 and the “increase in dead-cell fraction” value (LEE011/Ribociclib; 0.001 µM) was 0.0031. For the same cell line, the “increase in dead-cell fraction” value (LEE011/Ribociclib; 0.003162 µM) was -0.0078, the “increase in dead-cell fraction” value (LEE011/Ribociclib; 0.01 µM) was 0.0001 and the “increase in dead-cell fraction” value (LEE011/Ribociclib; 0.03162 µM) was 0.0156. For the same cell line, the “increase in dead-cell fraction” value (LEE011/Ribociclib; 0.1 µM) was 0.002, the “increase in dead-cell fraction” value (LEE011/Ribociclib; 0.3162 µM) was 0.0029 and the “increase in dead-cell fraction” value (LEE011/Ribociclib; 1 µM) was 0.0076. The “increase in dead-cell fraction” value (LEE011/Ribociclib; 3.162 µM) was 0.0018, the “increase in dead-cell fraction” value (LEE011/Ribociclib; 10 µM) was 0.0126 and the “increase in dead-cell fraction” value (THZ531; 0.0001 µM) was 0.0108. For the same cell line, the “increase in dead-cell fraction” value (THZ531; 0.0003162 µM) was 0.0023, the “increase in dead-cell fraction” value (THZ531; 0.001 µM) was -0.0009 and the “increase in dead-cell fraction” value (THZ531; 0.003162 µM) was 0.0027. For the same cell line, the “increase in dead-cell fraction” value (THZ531; 0.01 µM) was 0.0039, the “increase in dead-cell fraction” value (THZ531; 0.03162 µM) was 0.0089 and the “increase in dead-cell fraction” value (THZ531; 0.1 µM) was 0.0009. The “increase in dead-cell fraction” value (THZ531; 0.3162 µM) was 0.0073, the “increase in dead-cell fraction” value (THZ531; 1 µM) was 0.332 and the “increase in dead-cell fraction” value (THZ1; 0.0001 µM) was 0. The “increase in dead-cell fraction” value (THZ1; 0.0003162 µM) was -0.007, the “increase in dead-cell fraction” value (THZ1; 0.001 µM) was 0.0031 and the “increase in dead-cell fraction” value (THZ1; 0.003162 µM) was 0.0056. The “increase in dead-cell fraction” value (THZ1; 0.01 µM) was 0.0015, the “increase in dead-cell fraction” value (THZ1; 0.03162 µM) was 0.0071 and the “increase in dead-cell fraction” value (THZ1; 0.1 µM) was 0.0475. The “increase in dead-cell fraction” value (THZ1; 0.3162 µM) was 0.127, the “increase in dead-cell fraction” value (THZ1; 1 µM) was 0.697 and the “increase in dead-cell fraction” value (Flavopiridol; 0.0001 µM) was 0.0046. The “increase in dead-cell fraction” value (Flavopiridol; 0.0003162 µM) was 0.0087, the “increase in dead-cell fraction” value (Flavopiridol; 0.001 µM) was 0.0086 and the “increase in dead-cell fraction” value (Flavopiridol; 0.003162 µM) was 0.0003. The “increase in dead-cell fraction” value (Flavopiridol; 0.01 µM) was -0.0016, the “increase in dead-cell fraction” value (Flavopiridol; 0.03162 µM) was 0.0044 and the “increase in dead-cell fraction” value (Flavopiridol; 0.1 µM) was 0.0096. For the same cell line, the “increase in dead-cell fraction” value (Flavopiridol; 0.3162 µM) was 0.0302 and the “increase in dead-cell fraction” value (Flavopiridol; 1 µM) was 0.479.
